# In patent US20220251126A1, “ANTICANCER AGENTS” (Yissum Research Development Company of the Hebrew …, priority 2019, published 2022):
# Like-named read-outs stand apart in the source and are kept apart here.
# How the values were obtained:
# PC9 = experiment: Cytotoxicity, PC9 cells; format: cell-based, human
# A2780cisR = experiment: MTT cytotoxicity, cisplatin resistant line A2780cisR; format: cell-based, human
# Description: (§1) Cell cultures. The human ovarian A2780 and A2780cisR cancer were obtained from the American Type Culture Collection (ATCC, Rockville, Md.). Cell lines were maintained in the logarithmic phase at 37° C. under a 5% carbon dioxide atmosphere using RPMI 1640 medium containing 10% fetal calf serum, antibiotics (50 units per mL penicillin and 50 μg mL^−1 streptomycin) and 2 mM L-glutamine. MTT assay. The growth inhibitory effect towards human cell lines was evaluated by means of MTT (tetrazolium salt reduction) assay. Briefly, 3-8×10^3 cells per well, dependent upon the growth characteristics of the cell line, were seeded in 96-well microplates in growth medium (100 μL) and then incubated at 37° C. under a 5% carbon dioxide atmosphere. After 24 h, the medium was removed and replaced with a fresh one containing the compound to be studied at an appropriate concentration. Triplicate cultures were established for each treatment. After 72 h, each well was treated with 10 μL of a 5 mg mL^−1 MTT (3-(4,5-dimethylthiazol-2-yl)-2,5-diphenyltetrazoliumbromide) solution, and after additional 5 h, 100 μL of a sodium dodecyl sulfate (SDS) solution in 0.01 M HCl were added. Following overnight incubation, the inhibition of cell growth induced by the tested complexes was detected by measuring the absorbance of each well at 570 nm using a Bio-Rad 680 microplate reader (Bio-Rad, Hercules, CA).The mean absorbance for each drug dose was expressed as a percentage of the control untreated well absorbance and plotted vs. drug concentration.
# A2780 = experiment: MTT cytotoxicity, ovarian cancer cells A2780; format: cell-based, human
# Description: as §1
# A375 = experiment: Cytotoxicity, A375 cells; format: cell-based, human
# [1] = system: Lewis lung carcinoma (LLC); experiment: In vivo anticancer activity toward Lewis lung carcinoma (LLC) solid tumor; design: species or system C57BL mice; conditions: for reduction of tumor growth / tumor mass compared to the control group: LLC model, day 15, rounded values of the text; for In vivo efficacy LLC Inhibition of tumor growth (%) / In vivo efficacy LLC tumor weight: Table 1, daily dose 20 (Gem-Carb complex, oral), 3 (cisplatin), 60 (gemcitabine); for In vivo efficacy LLC Inhibition of tumor growth (%): day 15, vs control, 60 + 3 (combination) mg kg^-1; for In vivo efficacy LLC tumor weight / Average tumor weight (mean ± SD, g) / Inhibition of tumor growth (%): day 15; for In vivo efficacy LLC tumor weight: 60 + 3 (combination) mg kg^-1, days 7-14; for Average tumor weight (mean ± SD, g) / Inhibition of tumor growth (%): Table 2, daily oral 20 mg kg^-1 Gem-Carb complex, daily i.p. 3 mg kg^-1 cisplatin, 60 mg kg^-1 Gem or combination, days 7-14
# Description: In vivo anticancer activity toward Lewis lung carcinoma (LLC). All studies involving animal testing were carried out in accordance with ethical guidelines for animal research acknowledging the European Directive 2010/63/UE as to the animal welfare and protection and the related codes of practice. The mice were purchased from Charles River, housed in steel cages under controlled environmental conditions (constant temperature, humidity, and 12 h dark/light cycle), and alimented with commercial standard feed and tap water ad libitum. The LLC cell line was purchased from ECACC, United Kingdom. The LLC cell line was maintained in DMEM (Euroclone) supplemented with 10% heat inactivated fetal bovine serum (Euroclone), 10 mM L-glutamine, 100 U mL-1 penicillin, and 100 μg mL^−1 streptomycin in a 5% CO2 air incubator at 37° C. The LLC was implanted intramuscularly (i.m.) as a 2×10^6 cell inoculum into the right hind leg of 8 week old male and female C57BL mice (24±3 g body weight). […] Control mice received the vehicle (0.5% DMSO (v/v) and 99.5% of a saline solution (v/v)), whereas treated groups received daily doses of ctc-[Pt(NH3)2(Gem-Carb)(PhB)Cl2] […] At day 15, animals were sacrificed, the legs were amputated at the proximal end of the femur, and the inhibition of tumor growth was determined from the difference in the weights of the tumor-bearing leg and the healthy leg of the animals, expressed as a percentage referenced to the control animals Body weight was measured at day 0 and from day 7 onwards every 2 days and was taken as a parameter for systemic toxicity. All presented values are the means ±SD of no less than three measurements.
# Moreover, it provides no information on the toxicity of the compounds. […] Seven days after tumor inoculation the tumor-bearing mice were randomized into vehicle control and treatment groups. Control mice received the vehicle (0.5% DMSO (v/v) and 99.5% of a saline solution (v/v)), whereas treated groups received daily doses of ctc-[Pt(NH3)2(Gem-Carb)(PhB)Cl2] […] As an estimation of the adverse side effects, changes in the body weights were monitored every two days.
# [2] = design: species or system C57BL mice; conditions: mouse, in vivo
# Description: In vivo anticancer activity toward Lewis lung carcinoma (LLC). All studies involving animal testing were carried out in accordance with ethical guidelines for animal research acknowledging the European Directive 2010/63/UE as to the animal welfare and protection and the related codes of practice. The mice were purchased from Charles River, housed in steel cages under controlled environmental conditions (constant temperature, humidity, and 12 h dark/light cycle), and alimented with commercial standard feed and tap water ad libitum. The LLC cell line was purchased from ECACC, United Kingdom. […] At day 15, animals were sacrificed, the legs were amputated at the proximal end of the femur, and the inhibition of tumor growth was determined from the difference in the weights of the tumor-bearing leg and the healthy leg of the animals, expressed as a percentage referenced to the control animals Body weight was measured at day 0 and from day 7 onwards every 2 days and was taken as a parameter for systemic toxicity. […]
# Moreover, it provides no information on the toxicity of the compounds. […] As an estimation of the adverse side effects, changes in the body weights were monitored every two days.
# physchem = format: physicochemical
# Description: ctc-[Pt(NH3)2(Tax-Carb)(OH)Cl2] (3 mg, 0.0025 mmol) was dissolve in 750 μL of DMSO-d6 and mixed with ascorbic acid (2.2 mg, 0.0125 mmol). The ^1H NMR spectra were recorded every 6 min at 37° C.
# We incubated ctc-[Pt(NH3)2(Tax-Carb)(OH)Cl2] with 5 eq of ascorbate and the reduction was followed by ^1H NMR. The NH proton in ctc-[Pt(NH3)2(Tax-Carb)(OH)Cl2] resonates at 9.2 ppm and in free taxol at ˜8.85 ppm. […] Similar results were obtained for the reduction of ctc-[Pt(NH3)2(EM-Carb)(OAc)Cl2] (FIG. 5A).
# [3] = Homo sapiens, A2780cisR, Table 1, 72 h incubation, MTT, read-out: In vitro IC50 (μM) Cancer cell lines A2780cisR
# [4] = Homo sapiens, A2780, Table 1, 72 h incubation, MTT, read-out: In vitro IC50 (μM) Cancer cell lines A2780
SMILES,reduction of tumor growth / tumor mass compared to the control group [1],In vivo efficacy LLC Inhibition of tumor growth (%) [1] [%],In vivo efficacy LLC tumor weight [1] [g],"Average tumor weight (mean ± SD, g) [1] [g]",Inhibition of tumor growth (%) [1] [%],IC50 (A2780cisR; [3]) [nM],IC50 (A2780; [4]) [nM],also measured
"COc1ccc(/C=C\c2cc(OC)c(OC)c(OC)c2)cc1O [CA4, combretastatin-A4]",,,,,,,,"IC50 (PC9; Table 3, unit nM, read-out: Cytotoxicity data PC9 mean): 4.87 nM; IC50 (A2780cisR; Table 3, unit nM, read-out: Cytotoxicity data A2780 res mean): 2.63 nM; IC50 (A2780; Table 3, unit nM, read-out: Cytotoxicity data A2780 mean): 2.12 nM; IC50 (A375; Table 3, unit nM, read-out: Cytotoxicity data A375 mean): 1.63 nM"
"N.N.[Cl][Pt][Cl] [Cisplatin, cisplatin]",~90%,90.3,0.040 ± 0.01,0.040 ± 0.01,90.3,,,
"Nc1ccn([C@@H]2O[C@H](CO)[C@@H](O)C2(F)F)c(=O)n1 [Gemcitabine, gemcitabine]",about 80%,80.5,0.08 ± 0.2,0.080 ± 0.2,80.5,5 ± 1,2 ± 1,body weight loss [2]: ~20%
"N.N.[Cl-].[Cl-].[OH-].[OH-].[Pt+4] [Oxoplatin, oxoplatin]",,,,,,,,"IC50 (PC9; Table 3, unit μM, read-out: Cytotoxicity data PC9 mean): 3990 nM; IC50 (A2780cisR; Table 3, unit μM, read-out: Cytotoxicity data A2780 res mean): 1170 nM; IC50 (A2780; Table 3, unit μM, read-out: Cytotoxicity data A2780 mean): 450 nM; IC50 (A375; Table 3, unit μM, read-out: Cytotoxicity data A375 mean): 2210 nM"
"CC(=O)O[C@H]1C(=O)[C@@]2(C)[C@H]([C@H](OC(=O)c3ccccc3)[C@]3(O)C[C@H](OC(=O)[C@H](O)[C@@H](NC(=O)c4ccccc4)c4ccccc4)C(C)=C1C3(C)C)[C@]1(OC(C)=O)CO[C@@H]1C[C@@H]2O [Taxol, Paclitaxel]",,,,,,3 ± 0.06,2.2 ± 1,"IC50 (PC9; Homo sapiens, PC-9, Table 4, cells in nM, read-out: Cytotoxicity data PC9): 4.5 nM; IC50 (A2780cisR; Homo sapiens, A2780cisR, Table 4, cells in nM, read-out: Cytotoxicity data A2890cisR): 3.1 nM; IC50 (A2780; Homo sapiens, A2780, Table 4, cells in nM, read-out: Cytotoxicity data A2780): 1.05 nM; IC50 (A375; Homo sapiens, A-375, Table 4, cells in nM, read-out: Cytotoxicity data A375): 10 nM"
CC(=O)OC1C(=O)C2(C)C(O)CC3OCC3(OC(C)=O)C2C(OC(=O)c2ccccc2)C2(O)CC(OC(=O)C(OC(=O)[O][Pt]([NH2])([NH2])([OH])([Cl])[Cl])C(NC(=O)c3ccccc3)c3ccccc3)C(C)=C1C2(C)C (stereo not shown) [ctc-[Pt(NH3)2(Tax-Carb)(OH)Cl2]],,,,,,,,half-life at 3.3 mM (physchem): 25 min
